Test results as given in article PMC2896951, “The proline-rich peptide Bac7(1-35) reduces mortality from Salmonella typhimurium in a mouse model of infection” (BMC Microbiology, 2010).
Where a SMILES comes first, the peptide text is derived from it. Where no end group is shown, it is not given here.

Columns and labels:
Balb/c and CBA/Ca mice = experiment: In vivo toxicity after single i.p. injection; parameters: species or system mouse
Protocol: The in vivo toxicity of Bac7(1-35) was investigated by injecting mice via i.p. with increasing amounts of the peptide dissolved in apyrogen PBS (0.2 ml per mouse). The controls received the vehicle alone. Animal behavior and survival were monitored over a 14-day period.

[1] = system: S. typhimurium ATCC 14028 infection in CBA/Ca mice; experiment: Mouse model of typhoid fever, survival; type: in vivo
Protocol: Inocula containing 10^2 CFU/mouse of S. enterica ATCC 14028, expected to result in 90-100% mortality in 4-6 days for Balb/c and 10-18 days for CBA/Ca, were prepared by diluting log-phase bacterial cultures in sterile PBS. Ten mice were infected intraperitoneally and monitored for survival over a 60-day period after infection. Test peptide (30 mg/kg) was injected via i.p. after bacterial challenge. The choice of dose was based on preliminary data obtained with lower doses (data not shown) and on results reported in the literature for structurally similar peptides. Control mice were given 0.2 ml of PBS. […] The analysis of survival curves was conducted using the Kaplan-Meyer method and successive statistical evaluation by the Logrank test. Significance of percentage differences among groups was assessed by using the Fisher exact test. Values of p < 0.05 were considered statistically significant.

[2] = system: Salmonella enterica serovar Typhimurium ATCC 14028; experiment: Killing kinetics assay (bactericidal activity) in the presence of biological fluids; type: cell-based; details: for reduction of the number of CFU: 10 μM peptide, 1 h incubation, 37°C
Protocol: Murine plasma obtained using 2% (v/v) Na-citrate as an anticoagulant, and serum were prepared and stored at -20°C until use. The bactericidal activity of Bac7(1-35) against Salmonella enterica serovar Typhimurium ATCC 14028 was determined by a killing kinetics assay. Mid-logarithmic phase S. enterica cultures were diluted in murine serum or plasma (66% v/v final concentration) or BSA (40 mg/mL) (Sigma) to give approximately 1 × 10^6 cells/ml, and incubated with 10 μM Bac7(1-35) in a shaking water bath at 37°C for different times. Samples were withdrawn, diluted and plated to allow colony counts.

[3] = 37°C, Western blot
Protocol: (§1) At different times, aliquots of samples were diluted 1:5 in sample buffer (12% SDS, 6% dithiothreitol, 40% glycerol, 0.05% bromophenol blue, 150 mM Tris-HCl, pH 7), incubated for 15 min at 60°C and analyzed on a 16% Tricine/SDS gel. Proteins were then blotted onto nitrocellulose membrane (Whatman), and incubated overnight with shaking at 4°C in 40 mM Tris-HCl, pH 7.5, 5% non-fat milk, 0.05% Tween 20, 200 mM NaCl (blocking solution). Samples were incubated for 90 min with 1:1000 rabbit anti-Bac7(1-35) IgG, diluted in blocking solution, followed by a HRP-conjugated anti-rabbit IgG (Sigma-Aldrich). The ECL detection system (GE Healthcare) was used to develop the Western blots.

in vitro = experiment: in vitro
Protocol: Bac7(1-35) peptide (50 μg) was incubated in 250 μL of PBS containing 25% (v/v) of murine serum or plasma at 37°C. At different time intervals (0, 1, 2, 4, 8 and 24 h), aliquots of 25 μL (corresponding to 5 μg of peptide) were added to 65 μL of cold 0.5% (v/v) TFA in H2O, kept on ice for 5 min and than centrifuged at 10.000 × g for 5 min. The LC-MS analysis of supernatants were carried out as described, using a standard curve to calculate the peptide concentration.

[4] = 37°C, several days of incubation
Protocol: as §1

[5] = system: S. enterica ATCC 14028 in liver and spleen of CBA/Ca mice; experiment: Viable colony counts in murine liver and spleen homogenates; type: in vivo, mouse; details: 30 mg/kg i.p., 3 days post-inoculation
Protocol: Three days after bacterial infection, a group of 3 untreated and 3 peptide-treated mice were killed by cervical dislocation, and liver and spleen were removed. The organs were weighed, homogenized separately and dissolved in PBS. Suitable dilutions of 50 μL of the homogenate in PBS were plated in duplicate on Mueller-Hinton agar (Difco). The plates were then incubated at 37°C overnight to allow colony counts. Results are expressed as number of CFU/g of organ. This assay was repeated two fold.

[6] = system: E. coli infection; S. typhimurium disease; parameters: method as in 2 sources, one per row (each row's own in cited_ref): ref 8 = [8]; PMID 12222961; doi:10.1007/s00018-002-8493-8; Otvos L The short proline-rich antibacterial peptide family Cell Mol Life Sci 2002 59 7 1138 1150 10.1007/s00018-002-8493-8 12222961 PMC11337521 ||| ref 22 = [22]; PMID 2934362; doi:10.1093/jac/16.5.615; Easmon CS Blowers A Ciprofloxacin treatment of systemic salmonella infection in sensitive and resistance mice J Antimicrob Chemother 1985 16 5 615 619 10.1093/jac/16.5.615 2934362; details: Balb/c mice; cited from earlier work
Protocol: As a first step to evaluate the therapeutic potential of Bac7(1-35), its in vivo toxicity was determined in Balb/c and CBA/Ca mice after injection via i.p. of increasing single peptide doses. […] For ... || The potential of Bac7(1-35) to protect mice from a bacterial challenge was tested by a mouse model of Salmonella infection. Infected mice develop a systemic disease characterized by rapid bacterial multiplication in the liver and spleen that resembles typhoid fever caused by Salmonella serovar Typhi in humans.

[7] = Antimicrobial activity of the labelled peptide (data not shown); type: cell-based
healthy animals / mice = details: i.v.; cited from earlier work

Compound: CC[C@H](C)[C@H](NC(=O)[C@H](CCCNC(=N)N)NC(=O)[C@@H](N)CCCNC(=N)N)C(=O)N[C@@H](CCCNC(=N)N)C(=O)N1CCC[C@H]1C(=O)N[C@@H](CCCNC(=N)N)C(=O)N1CCC[C@H]1C(=O)N1CCC[C@H]1C(=O)N[C@@H](CCCNC(=N)N)C(=O)N[C@@H](CC(C)C)C(=O)N1CCC[C@H]1C(=O)N[C@@H](CCCNC(=N)N)C(=O)N1CCC[C@H]1C(=O)N[C@@H](CCCNC(=N)N)C(=O)N1CCC[C@H]1C(=O)N[C@@H](CCCNC(=N)N)C(=O)N1CCC[C@H]1C(=O)N[C@@H](CC(C)C)C(=O)N1CCC[C@H]1C(=O)N[C@@H](Cc1ccccc1)C(=O)N1CCC[C@H]1C(=O)N[C@@H](CCCNC(=N)N)C(=O)N1CCC[C@H]1C(=O)NCC(=O)N1CCC[C@H]1C(=O)N[C@@H](CCCNC(=N)N)C(=O)N1CCC[C@H]1C(=O)N[C@H](C(=O)N1CCC[C@H]1C(=O)N[C@@H](CCCNC(=N)N)C(=O)N1CCC[C@H]1C(=O)N[C@@H](CC(C)C)C(=O)N1CCC[C@H]1C(=O)N[C@@H](Cc1ccccc1)C(=O)N1CCC[C@H]1C(=O)O)[C@@H](C)CC [Bac7(1-35)] (H-RRIRPRPPRLPRPRPRPLPFPRPGPRPIPRPLPFP-OH; N-terminus and C-terminus assumed)
- dose at which mice died (Balb/c and CBA/Ca mice; highest dose): 150 mg/kg
- dose with no apparent toxic effect (Balb/c and CBA/Ca mice; monitored over 14 days): up to 75 mg/kg
- mean survival time ([1]; 30 mg/kg i.p. after i.p. challenge with 1 × 10^2 CFU/mouse, 60 days monitoring, control 10 days, p = 0.01): 24.5 days
- infected mice completely cured (survival) ([1]; 30 mg/kg i.p., 60 days, untreated 0%, p = 0.04): 36%
- reduction of the number of CFU ([2]; in the absence of serum/plasma): 2.5 log
- reduction of the number of CFU ([2]; with 66% murine serum or plasma, approx. 1 × 10^6 cells/ml, three independent determinations in triplicate): 0.5-1 log
- bactericidal activity upon addition of BSA ([2]; 40 mg/mL BSA, data not shown): did not change
- peptide concentration giving a CFU reduction comparable to 10 μM in serum/plasma ([2]; without the presence of plasma/serum, 1 h): 1 µM
- degradation in plasma relative to serum (immunodetection) ([3]; 25% (v/v) murine plasma in PBS, up to 24 h): slower
- band corresponding to intact peptide (immunodetection) ([3]; 25% (v/v) murine serum in PBS, 24 h incubation, 120 μg in 200 μL): disappeared
- degradation process in plasma relative to serum (in vitro; 25% (v/v) murine plasma in PBS, 37°C, LC-MS): slower in plasma than in serum
- state of the peptide after 8 h (in vitro; 25% (v/v) murine serum in PBS, 37°C, 8 h incubation, LC-MS): almost completely degraded
- metabolised at 1 h, 200 μg/mL (in vitro; mouse, 25% (v/v) murine serum in PBS): 10%
- peptide degradation in PBS alone [4]: no peptide degradation was observed
- fraction of animals with bacteria undetectable in both spleen and liver [5]: 1/3
- number of viable bacterial cells in liver and spleen homogenates ([5]; CBA/Ca mice): decreased significantly

Compound: O=C(O)c1cn(C2CC2)c2cc(N3CCNCC3)c(F)cc2c1=O [ciprofloxacin]
- prevention of fatal S. typhimurium disease [6]: failed to prevent

Compound: Bac7(1-35)-Alexa680: derivative of Bac7(1-35) fluorescently labelled with the dye Alexa680 via an added C-terminal cysteine (RRIRPRPPRLPRPRPRPLPFPRPGPRPIPRPLPFP-{C(Alexa Fluor 680 C2-maleimide)}; UniProt P19661 131-165, looked up, fragment)
- antimicrobial activity relative to the unlabelled peptide [7]: comparable

Compound: Drosocin: insect proline-rich AMP (GKPRPYSPRPTSHPRPIRV; ends and bridges not checked; UniProt P36193 22-40, looked up)
- dose at which completely devoid of toxicity (healthy animals / mice): 100 mg/kg
